We go through 10 compounds from patent US4555572A, “Pyrazolo[3,4,5-kl]acridine compositions and methods for their production and use” (Warner-Lambert Company, priority 1984, dated 1985).

For assay [1], the system named is L1210 cells. In words: PDC test, L1210 cell growth. The following applies: Mus musculus, read-out: PDC ID50. The class given is cell-based, murine. The procedure:
(c) Another test protocol is the PDC test. L1210 cells, a murine leukemia cell line, were grown in RPMI 1640 supplemented with 10% fetal bovine serum and genamicin (50 μg/ml). Drug dilutions were prepared in the appropriate solvent and 20 μl of each dilution were added to 24-well Linbro tissue culture plates followed by the addition of 2.0 ml of cell suspension containing 3×10^4 cells per ml. Solvent and medium controls were included in each test. After incubation at 37° C. for three days in 5% CO2 in air, the contents of each well were removed and the cells counted in a ZBI Coulter counter. Per cent growth was calculated relative to the controls and the levels of drug activity were expressed as ID50 in terms of molarity (M).

Assay [2] deals with HCT-8 cells. Put plainly: in vitro proliferating human colon adenocarcinoma (HCA) cell screen, HCT-8. The class given is cell-based. The procedure: (a) One test protocol is the in vitro proliferating human colon adenocarcinoma (HCA) cell screen. In this test, HCT-8 cells (HCA cell line received from Yale University) are trypsinized using trypsin-EDTA. A single cell suspension is achieved by passing the cells through a 26 gauge needle with a 20-cc syringe. A cell suspension is prepared using RPMI 1640+10% FCS+50 μg/ml gentamicin sulfate with a cell concentration is approximately 30,000 cells/ml. The cell suspension is dispensed in Linbro 24-well plates; 1 ml/well. The plates are incubated for approximately 48 hours at 37° C. in a 5% CO2 atmosphere. At this time test compounds are added in the appropriate concentration. Five μl of the 200 μg/ml stock solution is added to each well in a primary test. […] of the appropriate dilution is added to each well for a titration test. The plates are reincubated an additional 60 to 65 hours at 37° C. in a 5% CO 2 atmosphere. The cells are lysed using a mix of cationic surfactant, glacial acetic acid, and sodium chloride. Two ml of the lysed cell suspension from each well is added to 8 ml of diluent. The number of nuclei is determined using a Coulter counter (ZBI model), and a percent growth for each drug concentration is calculated. From this, and ID50 (molar concentration of compound that results in 50% inhibition of growth) is determined.

Assay [3] deals with lymphocytic leukemia P388. In words: in vivo lymphocytic leukemia P388 test. The following applies: Mus musculus, P388, ip, 120 h. Also noted: species or system CD2 F1 mice. The procedure:
Another test protocol is the in vivo lymphocytic leukemia P388 test. The animals used are either male or female CD2 F1 mice, six or seven animals per test group. The tumor transplant is by intraperitoneal injection of dilute ascitic fluid containing cells of lymphocytic leukemia P388. The test compounds are administered intraperitoneally once daily for five consecutive days at various doses following tumor inoculation. The animals are weighed and survivors are recorded on a regular basis for 30 days. A compound is designated "toxic" if, at a given dose, all animals died prior to four days after the first injection of drug. A ratio of survival time for treated (T)/control (C) animals is calculated. A criterion for efficacy is a ratio T/C times 100 greater than or equal to 125. See Cancer Chemotherapy Reports, Part 3, 3, 1 (1972) for a comprehensive discussion of the protocol.

Assay [4] has as its system Escherichia coli. In words: in vitro antibacterial (ABMF) microdilution susceptibility test. The class given is cell-based. Conditions: read-out: ABMF Test M.I.C. E. coli. From the text: (§1) (d) Still another test protocol is the in vitro antibacterial (ABMF) test which is a recognized standard microdilution susceptibility procedure in Mueller-Hinton broth against gram-positive and gram-negative bacterial test organisms. The procedure is a modification of a state-of-the-art procedure reported in Manual of Clinical Microbiology, Lennette, E. H., ed., by Barry, A. L. and C. Thornsberry at pages 463-474 and by Gavan, T. L. and A. L. Barry at pages 459-462, American Society for Microbiology, Washington, 1980.
(§2) In the test, a given bacterial culture is used to inoculate individaul test wells of microdilution trays containing growth medium and test compound, the latter in a microdilution series: 1000, 333, 111, 37, 12, 4, 1.4, and 0.46 micrograms per milliliter. […] For convenience, values are reported for Escherichia coli, Branhamella catarrhalis, Alcaligenes viscolactis, Streptococcus pneumoniae, and Bacillus cereus
A general note: In broth dilution the organism is exposed to a series of concentrations in liquid medium.

The test system of assay [5] is Streptococcus pneumoniae. Described as above. The following applies: read-out: ABMF Test M.I.C. S. pneu. The class given is cell-based.
Text: as §1, §2

Assay [6] concerns Alcaligenes viscolactis. Described as above. The class given is cell-based. Conditions: read-out: ABMF Test M.I.C. A. visc.
Text: as §1, §2

The test system of assay [7] is Branhamella catarrhalis. The description is as above. The class given is cell-based. Conditions: Moraxella catarrhalis, read-out: ABMF Test M.I.C. B. cata.
Text: as §1, §2

Assay [8] relates to Bacillus cereus. The assay is described as above. The class given is cell-based. The following applies: read-out: ABMF Test M.I.C. B. cere.
Text: as §1, §2

The mark [9] stands for this setting: HCT-8 cells, 60 to 65 hours, ED50, read-out: HCA ED50 Avg.
Setting [10] is: intraperitoneally once daily for five days, read-out: P388 in vivo T/C × 100.
[11] abbreviates: Mueller-Hinton broth, 37° C., 16-24 hours.
Setting [12] is: 3.12 mg/kg, intraperitoneally once daily for five days, read-out: P388 in vivo T/C × 100.
[13] abbreviates: 6.25 mg/kg, intraperitoneally once daily for five days, read-out: P388 in vivo T/C × 100.
[14] abbreviates: 1.56 mg/kg, intraperitoneally once daily for five days, read-out: P388 in vivo T/C × 100.

SMILES strings stand for the structures. Where a name gives a salt, the structure may show the parent alone. Read-outs that look alike come from different tables or passages of the source.

Take `CCN(CC)CCn1nc2c3c(c([N+](=O)[O-])ccc31)Nc1ccc(OCc3ccc(OC)cc3)cc1-2` [Example 22, N,N-Diethyl-9-[(4-methoxyphenyl)methoxy]-5-nitropyrazolo[3,4,5-kl]acridine-2(6H)-ethanamine, methanesulfonate (salt) (1:1)]: the IC50 in assay [1] (72 h, L1210 cells, three days) was determined as 820 nM.
In the case of `CCN(CC)CCn1nc2c3c(c([N+](=O)[O-])cc([N+](=O)[O-])c31)Nc1ccc(OCc3ccccc3)cc1-2` [Example 52, N,N-Diethyl-3,5-dinitro-9-(phenylmethoxy)pyrazolo [3,4,5-kl]-2(6H)-ethanamine, methanesulfonate, hemihydrate], the IC50 in assay [1] (L1210, 72 h) was determined as 750 nM.
Consider `CCN(CC)CCn1nc2c3c(c([N+](=O)[O-])ccc31)Nc1ccc(OC(=O)c3ccccc3)cc1-2` [Example 31, 2-[2-(Diethylamino)ethyl]-2,6-dihydro-5-nitropyrazolo [3,4,5-kl]acridin-9-ol, benzoate (ester), methanesulfonate (1:1) (salt), monohydrate], for which, in assay [1] (72 h, L1210 cells, three days), the IC50 is 3 nM.
In the case of `CCN(CC)CCn1nc2c3c(c([N+](=O)[O-])ccc31)Nc1ccc(O[Si](C)(C)C(C)(C)C)cc1-2` [Example 26, 9-[[(1,1-Dimethylethyl)dimethylsilyl]oxy]-N,N-diethyl-5-nitropyrazolo[3,4,5-kl]acridine-2(6H)-ethanamine, methanesulfonate (salt) (1:1)], the IC50 in assay [2] (HCT-8, read-out: HCA ED50 Avg.) is 6.4 nM. Further, the response vs control in vivo at 1.56 mg/kg in assay [3] (read-out: P388 in vivo T/C × 100, 1.56 mg/kg, intraperitoneally once daily for five days) is 154%. Also, in assay [3] (read-out: P388 in vivo T/C × 100, 3.12 mg/kg, intraperitoneally once daily for five days), the response vs control in vivo at 3.12 mg/kg is 158%. The response vs control in vivo at 6.25 mg/kg in assay [3] (read-out: P388 in vivo T/C × 100, 6.25 mg/kg, intraperitoneally once daily for five days) turned out to be 211%. Further, the MIC is above 1000 µg/mL in assay [4]; above 1000 µg/mL in assay [5]; 37 µg/mL in assay [6]; above 1000 µg/mL in assay [7]; above 1000 µg/mL in assay [8].
`CCN(CC)CCn1nc2c3c(c([N+](=O)[O-])ccc31)Nc1c(OC)cccc1-2.CS(=O)(=O)O` [Example 17, N,N-Diethyl-7-methoxy-5-nitropyrazolo[3,4,5-kl]acridine-2(6H)-ethanamine, methanesulfonate (1:1)]: in assay [2] (setting [9]), the IC50 is 510 nM. In assay [3] (setting [10]), the response vs control in vivo at 12.5 mg/kg is 106%. Besides, the MIC in assay [4] (setting [11]), in assay [5] (setting [11]), in assay [6] (setting [11]), in assay [7] (setting [11]) and in assay [8] (setting [11]) was below 0.46 µg/mL each time.
As for `CCN(CC)CCn1nc2c3c(c([N+](=O)[O-])ccc31)Nc1ccc(OC(=O)C(C)(C)C)cc1-2` [Example 28, 2-[2-(Diethylamino)ethyl]-2,6-dihydro-5-nitropyrazolo[3,4,5-kl]acridin-9-ol, 2,2-dimethylpropanoate (ester), methanesulfonate (salt) (1:1)], the IC50 in assay [1] (72 h, L1210 cells, three days) came out at 7.2 nM. Further, the response vs control in vivo at 3.12 mg/kg in assay [3] (setting [12]) was 221%. For the same compound, the response vs control in vivo at 6.25 mg/kg in assay [3] (setting [13]) was determined as 223%.
For `CCOc1ccc2c(c1)-c1nn(CCCN(C)C)c3ccc([N+](=O)[O-])c(c13)N2.CS(=O)(=O)O` [Example 46, 9-Ethoxy-N,N-dimethyl-5-nitropyrazolo[3,4,5-kl]acridine-2(6H)-propanamine, methanesulfonate (1:1)], the IC50 in assay [2] (setting [9]) stood at 55 nM. Moreover, the response vs control in vivo at 1.56 mg/kg in assay [3] (setting [14]) turned out to be 132%. The response vs control in vivo at 3.12 mg/kg in assay [3] (setting [12]) was determined as 137%. The response vs control in vivo at 6.25 mg/kg in assay [3] (setting [13]) amounted to 169%. For the same compound, the response vs control in vivo at 12.5 mg/kg in assay [3] (setting [10]) was 232%. Also, the MIC in assay [4] (setting [11]) is 12.3 µg/mL; in assay [5] (setting [11]) it was 4.1 µg/mL; in assay [6] (setting [11]), below 0.46 µg/mL; in assay [7] (setting [11]) it was 1.4 µg/mL; in assay [8] (setting [11]), 4.1 µg/mL.
For `CCN(CC)CCn1nc2c3c(c([N+](=O)[O-])ccc31)Nc1ccc(OC(C)=O)cc1-2` [Example 27, 2-[2-(Diethylamino)ethyl]-2,6-dihydro-5-nitropyrazolo[3,4,5-kl]acridin-9-ol, acetate (ester), methanesulfonate (salt) (1:1)], in assay [2] (setting [9]), the IC50 stood at 5.3 nM. In assay [3] (setting [14]), the response vs control in vivo at 1.56 mg/kg came out at 158%. For the same compound, in assay [3] (setting [12]), the response vs control in vivo at 3.12 mg/kg stood at 218%. Further, in assay [3] (setting [13]), the response vs control in vivo at 6.25 mg/kg stood at 165%. The MIC in assay [4] (setting [11]) is 12.3 µg/mL; in assay [5] (setting [11]), 1.4 µg/mL; in assay [6] (setting [11]), 0.46 µg/mL; in assay [7] (setting [11]) it was 0.46 µg/mL; in assay [8] (setting [11]), 4.1 µg/mL.
For the compound `CCCOc1ccc2c(c1)-c1nn(CCN(CC)CC)c3ccc([N+](=O)[O-])c(c13)N2.CS(=O)(=O)O` [Example 19, N,N-Diethyl-5-nitro-9-propoxypyrazolo[3,4,5-kl]acridine-2(6H)-ethanamine, methanesulfonate salt (1:1)], in assay [2] (setting [9]), the IC50 was 310 nM. For the same compound, in assay [3] (setting [12]), the response vs control in vivo at 3.12 mg/kg was 137%. Besides, in assay [3] (setting [13]), the response vs control in vivo at 6.25 mg/kg stood at 167%. Also, the MIC in assay [4] (setting [11]) was 1000 µg/mL; in assay [5] (setting [11]), below 0.46 µg/mL; in assay [6] (setting [11]), below 0.46 µg/mL; in assay [7] (setting [11]), below 0.46 µg/mL; in assay [8] (setting [11]), 12.3 µg/mL.
On to `CCCCOc1ccc2c(c1)-c1nn(CCNCCO)c3ccc([N+](=O)[O-])c(c13)N2` [Example 41, 2-[[2-(9-Butoxy-5-nitropyrazolo[3,4,5-kl]acridin-2(6H)-yl)ethyl]amino]ethanol, methanesulfonate, hemihydrate], for which the IC50 in assay [2] (setting [9]) stood at 340 nM. Moreover, the response vs control in vivo at 1.56 mg/kg in assay [3] (setting [14]) was 141%. The response vs control in vivo at 3.12 mg/kg in assay [3] (setting [12]) worked out at 147%. Besides, the response vs control in vivo at 6.25 mg/kg in assay [3] (setting [13]) amounted to 159%. For the same compound, the response vs control in vivo at 12.5 mg/kg in assay [3] (setting [10]) came out at 174%. The MIC is 3.7 µg/mL in assay [4] (setting [11]); 12.3 µg/mL in assay [5] (setting [11]); below 0.46 µg/mL in assay [6] (setting [11]); 1.4 µg/mL in assay [7] (setting [11]); 12.3 µg/mL in assay [8] (setting [11]).
